Results published in article PMC5218480 (PLoS ONE, 2017).

Test system: MV-4-11 cells
Assay: Gene expression microarray analysis (Affymetrix PrimeView) and GSEA
Assay type: cell-based, human
Design: RFU PODN (11730768_x_at) / Fold change /veh PODN (11730768_x_at) / RFU LINC00158 (11744669_a_at) / Fold change /veh LINC00158 (11744669_a_at) / RFU DUSP10 (11751237_a_at) / Fold change /veh DUSP10 (11751237_a_at) / RFU ID3 (11757404_x_at) / Fold change /veh ID3 (11757404_x_at) / RFU PLEKHG5 (11737974_s_at) / Fold change /veh PLEKHG5 (11737974_s_at) / RFU LRRC4B (11730491_at) / Fold change /veh LRRC4B (11730491_at) / RFU GIMAP4 (11747438_a_at) / Fold change /veh GIMAP4 (11747438_a_at) / RFU KRT8 (11758183_x_at) / Fold change /veh KRT8 (11758183_x_at) / RFU CNN1 (11734310_a_at) / Fold change /veh CNN1 (11734310_a_at) / RFU VPS37D (11726825_at) / Fold change /veh VPS37D (11726825_at) / RFU C10orf10 (11716522_x_at) / Fold change /veh C10orf10 (11716522_x_at) / RFU KIR2DL2 /// KIR2DL4 /// KIR2DL5A /// KIR2DL5B /// KIR2DS1 /// KIR2DS2 /// KIR2DS3 /// KIR2DS4 /// KIR3DL3 /// KIR3DL3 /// KIR3DS1 (11738374_at) / Fold change /veh KIR2DL2 /// KIR2DL4 /// KIR2DL5A /// KIR2DL5B /// KIR2DS1 /// KIR2DS2 /// KIR2DS3 /// KIR2DS4 /// KIR3DL3 /// KIR3DL3 /// KIR3DS1 (11738374_at) / RFU C1QL1 (11718748_at) / Fold change /veh C1QL1 (11718748_at) / RFU TMPRSS4 (11747572_a_at) / Fold change /veh TMPRSS4 (11747572_a_at) / RFU HAMP (11756126_x_at) / Fold change /veh HAMP (11756126_x_at) / RFU RNFT2 (11725882_a_at) / Fold change /veh RNFT2 (11725882_a_at) / RFU NR4A2 (11747474_a_at) / Fold change /veh NR4A2 (11747474_a_at) / RFU ABCC12 (11746883_a_at) / Fold change /veh ABCC12 (11746883_a_at) / RFU TMEM136 (11760407_x_at) / Fold change /veh TMEM136 (11760407_x_at) / RFU CLDN22 /// WWC2 (11732394_at) / Fold change /veh CLDN22 /// WWC2 (11732394_at) / RFU HLA-DPB1 (11760878_x_at) / Fold change /veh HLA-DPB1 (11760878_x_at) / RFU SPINT1 (11716480_a_at) / Fold change /veh SPINT1 (11716480_a_at) / RFU GAP43 (11754022_s_at) / Fold change /veh GAP43 (11754022_s_at) / RFU A4GNT (11735810_at) / Fold change /veh A4GNT (11735810_at) / RFU PRB3 (11715151_x_at) / Fold change /veh PRB3 (11715151_x_at) / RFU TUBB4B (11761932_at) / Fold change /veh TUBB4B (11761932_at) / RFU CAPN14 (11732068_a_at) / Fold change /veh CAPN14 (11732068_a_at) / RFU TMCC2 (11721928_a_at) / Fold change /veh TMCC2 (11721928_a_at) / RFU IRGQ (11745062_a_at) / Fold change /veh IRGQ (11745062_a_at) / RFU FAM174B (11720279_a_at) / Fold change /veh FAM174B (11720279_a_at) / RFU TMPRSS4 (11748680_a_at) / Fold change /veh TMPRSS4 (11748680_a_at) / RFU FAM212B (11763350_a_at) / Fold change /veh FAM212B (11763350_a_at) / RFU PLEKHG5 (11743358_a_at) / Fold change /veh PLEKHG5 (11743358_a_at) / RFU ZSCAN30 (11745921_a_at) / Fold change /veh ZSCAN30 (11745921_a_at) / RFU CMKLR1 (11741424_a_at) / Fold change /veh CMKLR1 (11741424_a_at) / RFU LOC101060620 /// MAPK8IP1 (11723275_at) / Fold change /veh LOC101060620 /// MAPK8IP1 (11723275_at) / RFU SPTSSB (11747773_x_at) / Fold change /veh SPTSSB (11747773_x_at) / RFU PRSS12 (11739890_at) / Fold change /veh PRSS12 (11739890_at) / RFU BIN1 (11741810_x_at) / Fold change /veh BIN1 (11741810_x_at) / RFU WNT11 (11732464_a_at) / Fold change /veh WNT11 (11732464_a_at) / RFU C10orf10 (11716521_a_at) / Fold change /veh C10orf10 (11716521_a_at) / RFU C5orf56 (11738089_at) / Fold change /veh C5orf56 (11738089_at) / RFU CYB561 (11721691_x_at) / Fold change /veh CYB561 (11721691_x_at) / RFU ANKRD19P (11752326_a_at) / Fold change /veh ANKRD19P (11752326_a_at) / RFU OR2T12 /// OR2T33 /// OR2T8 (11738714_s_at) / Fold change /veh OR2T12 /// OR2T33 /// OR2T8 (11738714_s_at) / RFU VCAN (11748164_a_at) / Fold change /veh VCAN (11748164_a_at) / RFU JSRP1 (11732532_at) / Fold change /veh JSRP1 (11732532_at) / RFU KRTAP10-11 (11738290_x_at) / Fold change /veh KRTAP10-11 (11738290_x_at) / RFU MYO3A (11730013_a_at) / Fold change /veh MYO3A (11730013_a_at) / RFU EBF3 (11725865_a_at) / Fold change /veh EBF3 (11725865_a_at) / RFU CAMK2N1 (11719241_x_at) / Fold change /veh CAMK2N1 (11719241_x_at) / RFU C5orf56 (11738088_a_at) / Fold change /veh C5orf56 (11738088_a_at) / RFU OLFML3 (11715873_a_at) / Fold change /veh OLFML3 (11715873_a_at) / RFU LOC100653217 /// NTM (11731650_a_at) / Fold change /veh LOC100653217 /// NTM (11731650_a_at) / RFU MAPK11 (11762145_a_at) / Fold change /veh MAPK11 (11762145_a_at) / RFU FIZ1 (11724087_x_at) / Fold change /veh FIZ1 (11724087_x_at) / RFU OASL (11726364_x_at) / Fold change /veh OASL (11726364_x_at) / RFU SOX15 (11748057_x_at) / Fold change /veh SOX15 (11748057_x_at) / RFU CD79A (11719716_a_at) / Fold change /veh CD79A (11719716_a_at) / RFU HIST1H1D (11736915_at) / Fold change /veh HIST1H1D (11736915_at) / RFU CASKIN2 (11723855_a_at) / Fold change /veh CASKIN2 (11723855_a_at) / RFU LOC730098 (11760151_x_at) / Fold change /veh LOC730098 (11760151_x_at) / RFU OR4N2 (11742367_at) / Fold change /veh OR4N2 (11742367_at) / RFU PRRT2 (11749266_a_at) / Fold change /veh PRRT2 (11749266_a_at) / RFU SNX32 (11753110_a_at) / Fold change /veh SNX32 (11753110_a_at) / RFU CDHR5 (11726645_a_at) / Fold change /veh CDHR5 (11726645_a_at) / RFU RCAN1 (11760418_a_at) / Fold change /veh RCAN1 (11760418_a_at) / RFU FAM167A (11723789_a_at) / Fold change /veh FAM167A (11723789_a_at) / RFU FAM26E (11764081_at) / Fold change /veh FAM26E (11764081_at) / RFU ISYNA1 (11749810_s_at) / Fold change /veh ISYNA1 (11749810_s_at) / RFU ACY1 (11761880_at) / Fold change /veh ACY1 (11761880_at) / RFU 11764098_at / Fold change /veh 11764098_at / RFU SAMD14 (11745864_x_at) / Fold change /veh SAMD14 (11745864_x_at) / RFU NPB (11741838_a_at) / Fold change /veh NPB (11741838_a_at) / RFU TMPRSS6 (11731388_a_at) / Fold change /veh TMPRSS6 (11731388_a_at) / RFU KRTAP10-2 (11738614_at) / Fold change /veh KRTAP10-2 (11738614_at) / RFU ARHGAP8 /// PRR5-ARHGAP8 (11727945_x_at) / Fold change /veh ARHGAP8 /// PRR5-ARHGAP8 (11727945_x_at) / RFU KRTAP5-7 /// NADSYN1 (11734609_at) / Fold change /veh KRTAP5-7 /// NADSYN1 (11734609_at) / RFU RASL12 (11751679_a_at) / Fold change /veh RASL12 (11751679_a_at) / RFU CDKN2B (11736163_a_at) / Fold change /veh CDKN2B (11736163_a_at) / RFU PRF1 (11729649_at) / Fold change /veh PRF1 (11729649_at) / RFU, ZNF638 /// ZNF638-IT1 / Fold change vs veh, ZNF638 /// ZNF638-IT1 / RFU, PANK3 / Fold change vs veh, PANK3 / RFU, SH3YL1 / Fold change vs veh, SH3YL1 / RFU, ZEB2 / Fold change vs veh, ZEB2 / RFU, NRIP1 / Fold change vs veh, NRIP1 / RFU, PTTG1IP / Fold change vs veh, PTTG1IP / RFU, CAPN2 / Fold change vs veh, CAPN2 / RFU, MED14 / Fold change vs veh, MED14 / RFU, SNORA58 / Fold change vs veh, SNORA58 / RFU, C1orf63 / Fold change vs veh, C1orf63 / RFU, LRRFIP1 / Fold change vs veh, LRRFIP1 / RFU, NDUFAF7 / Fold change vs veh, NDUFAF7 / RFU, SLC12A2 / Fold change vs veh, SLC12A2 / RFU, IBTK / Fold change vs veh, IBTK / RFU, ESF1 / Fold change vs veh, ESF1 / Fold change vs veh, TMEM50B / RFU, TAOK1 / Fold change vs veh, TAOK1 / RFU, ACBD3 / Fold change vs veh, ACBD3 / RFU, TMA16 / Fold change vs veh, TMA16 / RFU, RWDD3 / Fold change vs veh, RWDD3 / RFU, BCAT1 / Fold change vs veh, BCAT1 / RFU, EDEM3 / Fold change vs veh, EDEM3 / RFU, TMEM33 / Fold change vs veh, TMEM33 / RFU, WDR75 / Fold change vs veh, WDR75 / RFU, AHCTF1 / Fold change vs veh, AHCTF1 / RFU, TFRC / Fold change vs veh, TFRC / RFU, ZDHHC17 / Fold change vs veh, ZDHHC17 / RFU, NOM1 / Fold change vs veh, NOM1 / RFU, ARL8B / Fold change vs veh, ARL8B / RFU, ZBTB11 / Fold change vs veh, ZBTB11 / RFU, TAMM41 / Fold change vs veh, TAMM41 / RFU, KIAA1704 /// LOC100996395 / Fold change vs veh, KIAA1704 /// LOC100996395 / RFU, ING1 / Fold change vs veh, ING1 / RFU, TRMT61B / Fold change vs veh, TRMT61B / RFU, FUBP3 / Fold change vs veh, FUBP3 / RFU, TP53 / Fold change vs veh, TP53 / RFU, TNKS2 / Fold change vs veh, TNKS2 / RFU, ZFP14 / Fold change vs veh, ZFP14 / RFU, ACTR2 / Fold change vs veh, ACTR2 / RFU, PPP3R1 / Fold change vs veh, PPP3R1 / RFU, PIK3R1 / Fold change vs veh, PIK3R1 / RFU, HNRNPA1 / Fold change vs veh, HNRNPA1 / RFU, RNF170 / Fold change vs veh, RNF170 / RFU, ZNF28 / Fold change vs veh, ZNF28 / RFU, RNGTT / Fold change vs veh, RNGTT / RFU, OGT / Fold change vs veh, OGT / RFU, BRD1 / Fold change vs veh, BRD1 / RFU, MARS / Fold change vs veh, MARS / RFU, ZNF655 / Fold change vs veh, ZNF655 / RFU, FAHD1 / Fold change vs veh, FAHD1 / RFU, BDP1 / Fold change vs veh, BDP1 / RFU, LRRCC1 / Fold change vs veh, LRRCC1 / RFU, ARID1A / Fold change vs veh, ARID1A / RFU, ZNF146 / Fold change vs veh, ZNF146 / RFU, ZNF330 / Fold change vs veh, ZNF330 / RFU, GPN3 / Fold change vs veh, GPN3 / RFU, C9orf123 / Fold change vs veh, C9orf123 / RFU, N4BP2L2 / Fold change vs veh, N4BP2L2 / RFU, ARFIP1 / Fold change vs veh, ARFIP1 / RFU, FAM179B / Fold change vs veh, FAM179B / RFU, BCL10 / Fold change vs veh, BCL10 / RFU, UHRF1BP1L / Fold change vs veh, UHRF1BP1L / RFU, BET1 / Fold change vs veh, BET1 / RFU, CNOT2 / Fold change vs veh, CNOT2 / RFU, ZNF268 / Fold change vs veh, ZNF268 / Fold change vs veh, ZNF507 / RFU, DGCR2 / Fold change vs veh, DGCR2 / RFU, WDSUB1 / Fold change vs veh, WDSUB1 / Fold change vs veh, HSP90B1 /// MIR3652 / RFU, ADSS / Fold change vs veh, ADSS / RFU, GK / Fold change vs veh, GK / RFU, ZNF148 / Fold change vs veh, ZNF148 / RFU, TAF9 / Fold change vs veh, TAF9 / RFU, SLC1A5 / Fold change vs veh, SLC1A5 / RFU, SLMO2 / Fold change vs veh, SLMO2 / RFU, ABCC4 / Fold change vs veh, ABCC4 / RFU, LOC101060439 /// RAP1B / Fold change vs veh, LOC101060439 /// RAP1B / RFU, RFX7 / Fold change vs veh, RFX7 / RFU, GTPBP10 / Fold change vs veh, GTPBP10 / RFU, CNEP1R1 / Fold change vs veh, CNEP1R1 / RFU, BIVM-ERCC5 /// ERCC5 / Fold change vs veh, BIVM-ERCC5 /// ERCC5 / RFU, ILF3 / Fold change vs veh, ILF3 / RFU 11762660_at / Fold change /veh 11762660_at / RFU VCAN (11757783_s_at) / Fold change /veh VCAN (11757783_s_at) / RFU DDX43 (11728927_at) / Fold change /veh DDX43 (11728927_at) / RFU KRT8 (11758188_x_at) / Fold change /veh KRT8 (11758188_x_at) / RFU NKD1 (11759106_at) / Fold change /veh NKD1 (11759106_at) / RFU SRD5A1 (11742802_a_at) / Fold change /veh SRD5A1 (11742802_a_at) / RFU TPSAB1 /// TPSB2 (11721975_s_at) / Fold change /veh TPSAB1 /// TPSB2 (11721975_s_at) / RFU GSTM3 (11746129_a_at) / Fold change /veh GSTM3 (11746129_a_at) / RFU IL23R (11737362_x_at) / Fold change /veh IL23R (11737362_x_at) / RFU TMEM51 (11727254_a_at) / Fold change /veh TMEM51 (11727254_a_at) / RFU PIWIL2 (11732686_x_at) / Fold change /veh PIWIL2 (11732686_x_at) / RFU ORM1 (11744905_x_at) / Fold change /veh ORM1 (11744905_x_at) / RFU CCDC152 (11743942_at) / Fold change /veh CCDC152 (11743942_at) / RFU ECM1 (11717891_a_at) / Fold change /veh ECM1 (11717891_a_at) / RFU IL23R (11748794_a_at) / Fold change /veh IL23R (11748794_a_at) / RFU TNFAIP8L3 (11732012_x_at) / Fold change /veh TNFAIP8L3 (11732012_x_at) / RFU MBOAT4 (11741988_at) / Fold change /veh MBOAT4 (11741988_at) / RFU 11764193_at / Fold change /veh 11764193_at / RFU TMEM53 (11763286_at) / Fold change /veh TMEM53 (11763286_at) / RFU MAGEB2 (11727129_at) / Fold change /veh MAGEB2 (11727129_at) / RFU TMEM200A (11744735_a_at) / Fold change /veh TMEM200A (11744735_a_at) / RFU CCDC152 (11751479_a_at) / Fold change /veh CCDC152 (11751479_a_at) / RFU FAM211A (11726209_a_at) / Fold change /veh FAM211A (11726209_a_at) / RFU RGS16 (11746705_a_at) / Fold change /veh RGS16 (11746705_a_at) / RFU VCAN (11755009_s_at) / Fold change /veh VCAN (11755009_s_at) / RFU RHOB (11743442_s_at) / Fold change /veh RHOB (11743442_s_at) / RFU RGS16 (11720943_a_at) / Fold change /veh RGS16 (11720943_a_at) / RFU RGS16 (11720944_at) / Fold change /veh RGS16 (11720944_at) / RFU, VPS4B / Fold change vs veh, VPS4B / RFU, CREB1 / Fold change vs veh, CREB1 / RFU, DNAJC13 / Fold change vs veh, DNAJC13 / RFU, GNAQ / Fold change vs veh, GNAQ / RFU, CDK5R1 / Fold change vs veh, CDK5R1 / RFU, ZRANB3 / Fold change vs veh, ZRANB3 / RFU, CUL4A / Fold change vs veh, CUL4A / RFU, CCNY / Fold change vs veh, CCNY / RFU, UFL1 / Fold change vs veh, UFL1 / RFU, COG3 / Fold change vs veh, COG3 / RFU, DIAPH2 / Fold change vs veh, DIAPH2 / RFU, SKA2 / Fold change vs veh, SKA2 / RFU, AFF3 / Fold change vs veh, AFF3 / RFU, LMF1 / Fold change vs veh, LMF1 / RFU, IPO11 / Fold change vs veh, IPO11 / RFU, DFFB / Fold change vs veh, DFFB / RFU, FOXP1 / Fold change vs veh, FOXP1 / RFU, CARD8 / Fold change vs veh, CARD8 / RFU, STRN3 / Fold change vs veh, STRN3 / RFU, ADK / Fold change vs veh, ADK / RFU, RASSF2 / Fold change vs veh, RASSF2 / RFU, WIPF1 / Fold change vs veh, WIPF1 / RFU, LARP1B / Fold change vs veh, LARP1B / RFU, RASA1 / Fold change vs veh, RASA1 / RFU, RB1 / Fold change vs veh, RB1 / RFU, PPFIA1 / Fold change vs veh, PPFIA1 / RFU, MAT2A / Fold change vs veh, MAT2A / RFU, CCT5 / Fold change vs veh, CCT5 / RFU, WDR92 / Fold change vs veh, WDR92 / RFU, CUX1 / Fold change vs veh, CUX1 / RFU, TTC7A / Fold change vs veh, TTC7A / RFU, TMEM135 / Fold change vs veh, TMEM135 / RFU, DEPTOR / Fold change vs veh, DEPTOR / RFU, CPM / Fold change vs veh, CPM / RFU, DNAJB6 / Fold change vs veh, DNAJB6 / RFU, CACNA2D3 / Fold change vs veh, CACNA2D3 / RFU, DTX4 / Fold change vs veh, DTX4 / RFU, TFCP2 / Fold change vs veh, TFCP2 / RFU, GMCL1 /// GMCL1P1 / Fold change vs veh, GMCL1 /// GMCL1P1 / RFU, AEBP2 / Fold change vs veh, AEBP2 / RFU, SNHG1 /// SNORD22 /// SNORD25 /// SNORD26 /// SNORD27 /// SNORD28 /// SNORD29 /// SNORD31 / Fold change vs veh, SNHG1 /// SNORD22 /// SNORD25 /// SNORD26 /// SNORD27 /// SNORD28 /// SNORD29 /// SNORD31 / Fold change (Aza/veh), C12orf56 (ProbeSet 11735607_a_at) / Fold change (ACY-1035/veh), C12orf56 (ProbeSet 11735607_a_at) / Fold change (Aza/veh), FGFR1OP (ProbeSet 11751329_s_at) / Fold change (ACY-1035/veh), FGFR1OP (ProbeSet 11751329_s_at) / Fold change (Aza/veh), VPS36 (ProbeSet 11739960_a_at) / Fold change (ACY-1035/veh), VPS36 (ProbeSet 11739960_a_at) / RFU SYPL1 (11715823_x_at) / Fold change /veh SYPL1 (11715823_x_at) / RFU IGFBP7 (11715501_s_at) / Fold change /veh IGFBP7 (11715501_s_at) / RFU REEP3 (11722064_at) / Fold change /veh REEP3 (11722064_at) / RFU IGLL1 (11728026_x_at) / Fold change /veh IGLL1 (11728026_x_at): dose or concentration left out as unconfirmed
Conditions: MV-4-11 cells, 48 hours

Nc1ncn([C@@H]2O[C@H](CO)[C@@H](O)[C@H]2O)c(=O)n1 [azacitidine]
RFU IRGQ (11745062_a_at): 24.06 RFU
